Assay results published in EP0937711A1, “Thiobenzamides, process for their preparation and medicaments containing them” (Roche Diagnostics GmbH, priority 1998, dated 1999).

Experiments:
Citratplasma = experiment: Activated partial thromboplastin time (APTT) in citrate plasma; format: biochemical; conditions: time as difference to control (control ca. 28-35 s); for APTT 1000: 1000 µM in final volume, stopped after 5 min (>300)
Protocol: (§1) Neun Teile frisches Blut gesunder Spender werden mit einem Teil Natriumcitratlösung (0.11 Mol/l) gemischt und bei ca. 3000 U/min 10 Minuten bei Raumtemperatur zentrifugiert. Das Plasma wird abpipettiert und kann bei Raumtemperatur ca. 8 h aufbewahrt werden.
100 µl Citratplasma und 100 µl APTT-Reagenz (Diagnostica Stago / Boehringer Mannheim GmbH; enthält Lyophilisat Cephalin mit mikrokristallinem Kieselguraktivator) werden zusammen mit 10 µl Dimethylsulfoxid (DMSO) oder 10 µl einer Lösung der Wirksubstanz in DMSO in einem Kugelkoagulometer (KC10 der Fa. Amelung) 3 Minuten bei 37°C inkubiert. Mit Zugabe von 100 µl 0.025 M Calciumchlorid-Lösung wird eine Stoppuhr gestartet und der Zeitpunkt bis zum Eintritt der Gerinnung bestimmt. Die APTT beträgt bei den Kontrollmessungen ca. 28 -35 Sekunden und wird durch Wirksubstanzen verlängert. Sofern bei den Messungen nach 5 Minuten keine Gerinnung eintrat, wurde der Versuch gestoppt (>300).
In Tabelle 1 sind die gemessenen APTT-Zeiten in Sekunden als Differenz zur Kontrolle angegeben. Die Konzentrationen der Wirksubstanzen betrugen im Endvolumen 1000 µM (APTT 1000), 100 µM (APTT 100), 10 µM (APTT 10), 1 µM (APTT 1).

humanem Faktor Xa = molecular target: T1, humanem Faktor Xa (Homo sapiens, UniProt P00742); experiment: Inhibition constants (Ki), chromogenic substrate Chromozym X, FXa; format: biochemical; conditions: pH 7.5, 25°C, 0.1 M phosphate buffer
T1 construct: humanem Faktor Xa; purchased Boehringer Mannheim GmbH
T1 sequence (P00742 235-488 limits assumed): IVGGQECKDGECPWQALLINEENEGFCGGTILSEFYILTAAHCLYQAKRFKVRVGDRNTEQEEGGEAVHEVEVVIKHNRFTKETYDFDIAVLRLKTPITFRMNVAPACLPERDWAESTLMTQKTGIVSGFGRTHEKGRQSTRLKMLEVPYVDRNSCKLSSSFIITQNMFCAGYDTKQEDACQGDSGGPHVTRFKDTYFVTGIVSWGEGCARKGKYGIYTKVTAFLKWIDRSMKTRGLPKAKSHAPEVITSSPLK
T1 sequence (P00742 41-179 partner limits assumed): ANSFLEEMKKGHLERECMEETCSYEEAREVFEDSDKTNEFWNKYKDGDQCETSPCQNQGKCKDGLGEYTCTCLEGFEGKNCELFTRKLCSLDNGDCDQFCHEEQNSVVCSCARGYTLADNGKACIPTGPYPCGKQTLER
Protocol: (§2) Die kinetischen Messungen wurden in 0.2 M Kochsalz und 0.5 % Polyethylenglycol 6000 enthaltendem 0.1 M Phosphatpuffer (Herstellung siehe unten) bei pH 7.5 und 25°C in Polystyrol-Halbmikroküvetten in einem Gesamtvolumen von 1 mi durchgeführt. Die Reaktionen wurden durch Zugabe von Enzym zu vorinkubierten Lösungen, die entweder Dimethylsulfoxid (Kontrolle) oder Lösungen der Testsubstanz in DMSO (Inhibitor-Stocklösungen: 10 mM in DMSO) enthielten, gestartet. Die Zunahme der Extinktion bei 405 nm als Folge der Freisetzung von 4-Nitroanilin aus dem Substrat wurde photometrisch über einen Zeitraum von 12 Minuten verfolgt. Im Abstand von 20 Sekunden wurden Meßwerte (Extinktion vs. Zeit) ermittelt und diese Daten per Computer gespeichert.
(§3) Zur Bestimmung der Inhibitionskonstanten Ki wurde wie folgt vorgegangen: Die Geschwindigkeiten V0 (Extinktionsänderung pro Sekunde; Messungen ohne Inhibitor) und Vi (Extinktionsänderung pro Sekunde; Messungen mit Inhibitor) wurden durch lineare Regression bestimmt, wobei nur die Meßpunkte berücksichtigt wurden, bei der sich die Substratkonzentration um weniger als 15% verringerte. Aus einer Meßreihe (konstante Inhibitorkonzentration, variable Substratkonzentrationen) bestimmte man KM und VMAX durch nichtlinearen Fit auf die Gleichung V =(Vmax * [S])/([S] + KM) [formula] […]

Humanes α-Thrombin = molecular target: T2, Humanes α-Thrombin (Homo sapiens, UniProt P00734); experiment: Inhibition constants (Ki), chromogenic substrate S-2238, thrombin; format: biochemical; conditions: pH 7.5, 25°C, 0.1 M phosphate buffer
T2 construct: Humanes α-Thrombin; purchased Sigma
Protocol: as §2, §3

[1] = molecular target: T3, bovines pankreatisches Trypsin (Bos taurus, UniProt P00760); experiment: Inhibition constants (Ki), chromogenic substrate S-2238, trypsin; format: biochemical, bovin; conditions: pH 7.5, 25°C, 0.1 M phosphate buffer
T3 construct: purchased Sigma; host or cells: bovine pancreas
T3 sequence (P00760 24-246): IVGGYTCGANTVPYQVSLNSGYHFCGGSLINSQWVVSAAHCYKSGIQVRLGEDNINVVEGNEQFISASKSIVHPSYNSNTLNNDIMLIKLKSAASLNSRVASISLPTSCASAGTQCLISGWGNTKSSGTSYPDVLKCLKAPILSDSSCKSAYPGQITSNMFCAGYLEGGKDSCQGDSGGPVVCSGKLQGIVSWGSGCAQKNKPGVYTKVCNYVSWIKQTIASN
Protocol: as §2, §3

Pferdethrombin = experiment: Thrombin time in citrate plasma; format: biochemical, Pferd; conditions: 500 µM in final volume; time as difference to control (control ca. 24 s)
Protocol: as §1
200 µl Citratplasma werden in einem Kugelkoagulometer (KC10 der Fa. Amelung) 2 Minuten bei 37°C inkubiert. Zu 190 µl vortemperiertem Thrombin-Reagenz (Boehringer Mannheim GmbH; enthält ca. 3 U/ml Pferdethrombin und 0.0125 M Ca^++ gibt man 10 µl Dimethylsulfoxid (DMSO) oder eine Lösung der Wirksubstanz in DMSO. Mit Zugabe dieser 200 µl Lösung zum Plasma wird eine Stoppuhr gestartet und der Zeitpunkt bis zum Eintritt der Gerinnung bestimmt. Die Thrombinzeit beträgt bei den Kontrollmessungen ca. 24 Sekunden und wird durch Wirksubstanzen verlängert. Sofern bei den Messungen nach 5 Minuten keine Gerinnung eintrat, wurde der Versuch gestoppt (>300).
In Tabelle 1 sind die gemessenen Thrombinzeiten in Sekunden als Differenz zur Kontrolle angegeben. Die Konzentrationen der Wirksubstanzen betrugen im Endvolumen 500 µM (TT 500).

Structure (SMILES)	APTT 1000 (Citratplasma)	further results
NC(=S)c1ccc(C(=O)Nc2ccccc2NC(=O)c2ccc(C(N)=S)cc2)cc1 [Beispiel 9, 1,2-Bis-(4-thiocarbamoyl-benzoylamino)-benzol]	6.7 s	
COC(=O)c1ccc(NC(=O)c2ccc3ccccc3c2)c(NC(=O)c2ccc(C(N)=S)cc2)c1 [Beispiel 1, 4-[(Naphthalin-2-carbonyl)-amino]-3-(4-thiocarbamoyl-benzoylamino)-benzoesäuremethylester]	1 s	
COC(=O)c1ccc(NC(=O)c2ccc(OC)c(OC)c2)c(NC(=O)c2ccc(C(N)=S)cc2)c1 [Beispiel 5, 4-(3,4-Dimethoxy-benzoylamino)-3-(4-thiocarbamoyl-benzoylamino)-benzoesäuremethylester]	3.5 s	
COC(=O)c1ccc(NC(=O)c2ccccc2C(=O)O)c(NC(=O)c2ccc(C(N)=S)cc2)c1 [Beispiel 6, 4-(2-Carboxy-benzoylamino)-3-(4-thiocarbamoyl-benzoylamino)-benzoesäuremethylester]	9.0 s	
COc1ccc(C(=O)Nc2ccccc2NC(=O)c2ccc(C(N)=S)cc2)cc1 [Beispiel 3, 2-(4-Methoxy-benzoylamino)-1-(4-thiocarbamoyl-benzoylamino)-benzol]	157.9 s	Ki (humanem Faktor Xa): 0.05 µM; Ki (Humanes α-Thrombin): > 100 µM; Ki [1]: > 100 µM; APTT 1 (Citratplasma; 1 µM in final volume): 2.6 s; APTT 10 (Citratplasma; 10 µM in final volume): 8.4 s; APTT 100 (Citratplasma; 100 µM in final volume): 32.4 s; TT 500 (Pferdethrombin): 2.4 s
NC(=S)c1ccc(C(=O)Nc2cc(C(=O)O)ccc2NC(=O)c2ccc3ccccc3c2)cc1 [Beispiel 2, 4-[(Naphthalin-2-carbonyl)-amino]-3-(4-thiocarbamoyl-benzoylamino)-benzoesäure]	9.4 s	
COC(=O)c1ccc(NS(=O)(=O)c2ccc(OC)cc2)c(NC(=O)c2ccc(C(N)=S)cc2)c1 [Beispiel 7, 4-(4-Methoxy-benzolsulfonylamino)-3-(4-thiocarbamoyl-benzoylamino)-benzoesäuremethylester]	0.8 s	
COC(=O)c1ccc(NC(=O)c2ccc(OC)cc2)c(NC(=O)c2ccc(C(N)=S)cc2)c1 [Beispiel 4, 4-(4-Methoxy-benzoylamino)-3-(4-thiocarbamoyl-benzoylamino)-benzoesäuremethylester]	65.3 s	
NC(=S)c1ccc(C(=O)Nc2cc(C(=O)O)ccc2NS(=O)(=O)c2ccc3ccccc3c2)cc1 [Beispiel 10, 4-(Naphthalin-2-sulfonylamino)-3-(4-thiocarbamoyl-benzoylamino)-benzoesäure]	0.7 s	
COC(=O)c1ccc(NS(=O)(=O)c2ccc3ccccc3c2)c(NC(=O)c2ccc(C(N)=S)cc2)c1 [Beispiel 8, 4-(Naphthalin-2-sulfonylamino)-3-(4-thiocarbamoyl-benzoylamino)-benzoesäuremethylester]	-0.4 s	
